Laboratory results as given in article PMC8087116 (European journal of pharmaceutical sciences : official …, 2017).

Legend:
HL-60-TB = assay: NCI-60 screening, leukemia HL-60-TB; format: cell-based, human
[1] = system: NCI-60 human tumor cell lines; conditions: for Inhibition against one or more cell lines: single dose 10 μM
CCRF-CEM = assay: NCI-60 screening, leukemia CCRF-CEM; format: cell-based, human
MDA-MB-468 = assay: NCI-60 screening, breast MDA-MB-468; format: cell-based, human
COLO-205 = assay: NCI-60 dose-response, colon COLO-205; format: cell-based, human; conditions: COLO-205 colon cancer cell line, five-concentration dose-response
SW-620 = assay: NCI-60 dose-response, colon SW-620; format: cell-based, human; conditions: SW-620 colon cancer cell line, five-concentration dose-response
SR cell line = assay: NCI-60 dose-response, leukemia SR; format: cell-based, human; conditions: five-concentration dose-response
MDA-MB-231/ATCC = assay: NCI-60 dose-response, breast MDA-MB-231/ATCC; format: cell-based, human; conditions: MDA-MB-231/ATCC breast cancer cell line, five-concentration dose-response
LOX IMVI = assay: NCI-60 dose-response, melanoma LOX IMVI; format: cell-based, human; conditions: LOX IMVI melanoma cell line, five-concentration dose-response
MALME-3 M = assay: NCI-60 dose-response, melanoma MALME-3 M; format: cell-based, human; conditions: MALME-3 M melanoma cell line, five-concentration dose-response
M14 = assay: NCI-60 dose-response, melanoma M14; format: cell-based, human; conditions: M14 melanoma cell line, five-concentration dose-response
SK-MEL-5 = assay: NCI-60 dose-response, melanoma SK-MEL-5; format: cell-based, human; conditions: SK-MEL-5 melanoma cell line, five-concentration dose-response
MOLT-4 = assay: NCI-60 screening, leukemia MOLT-4; format: cell-based, human
HOP-92 = assay: NCI-60 screening, NSCL HOP-92; format: cell-based, human
PC-3 = assay: NCI-60 screening, prostate PC-3; format: cell-based, human
HOP-62 = assay: NCI-60 screening, NSCL HOP-62; format: cell-based, human
NCI-H23 = assay: NCI-60 screening, NSCL NCI-H23; format: cell-based, human
RPMI-8226 = assay: NCI-60 screening, leukemia RPMI-8226; format: cell-based, human

For `COC(=O)[C@H](NS(=O)(=O)N(c1ccc(F)cc1)C1CCN(Cc2ccc(F)cc2)CC1)C(C)C` [Compound 37], the “Inhibition of sensitive tumor cell lines at 10 μM conc.” value (“Inhibition … at 10 μM conc.” for short) (HL-60-TB) was “Leukemia: HL-60-TB (60%)” and the “Inhibition against one or more cell lines” value [1] was greater than 50%.
Work on `COC(=O)[C@@H](C)CNS(=O)(=O)N(c1cc(C(F)(F)F)cc(C(F)(F)F)c1)C1CCN(Cc2ccc(F)cc2)CC1` [Compound 26] yielded a GI50 (CCRF-CEM; CCRF-CEM leukemia cell line, five-concentration dose-response) of 12.8 µM, a GI50 (MDA-MB-468; MDA-MB-468 breast cancer cell line, five-concentration dose-response) of 3.25 µM and a GI50 (COLO-205) of 1.88 µM. It also gave a GI50 (SW-620) of 11.1 µM, a GI50 (SR cell line) of 3.18 µM and a GI50 (MDA-MB-231/ATCC) of 12.7 µM. It also gave a GI50 (LOX IMVI) of 8.1 µM, a GI50 (MALME-3 M) of 6.89 µM and a GI50 (M14) of 3.75 µM. The GI50 (SK-MEL-5) was 3.19 µM, the “Cytotoxicity as indicated by LC50 values, words” value [1] was “not cytotoxic for most of the cell lines” and the GI50 ([1]; all remaining subpanel cell lines of NCI-60) was no more than 21 µM. The “TGI (total growth inhibition, cytostatic activity), words” value ([1]; dose-response, NCI-60 panel) was “total growth inhibition of most of the cell lines at moderate concentrations”.
For `COC(=O)[C@@H](CC(C)C)NS(=O)(=O)N(c1cccc(F)c1)C1CCN(Cc2ccc(C(F)(F)F)cc2)CC1` [Compound 25], the “Inhibition … at 10 μM conc.” value (MOLT-4) was 56%, the “Inhibition … at 10 μM conc.” value (HOP-92) was 60% and the “Inhibition … at 10 μM conc.” value (PC-3) was 50%. The “Inhibition against one or more cell lines” value [1] was greater than 50%.
In the case of `COC(=O)[C@@H](OC(=O)NS(=O)(=O)N(c1ccc(F)cc1)C1CCN(Cc2ccc(F)cc2)CC1)C(C)C` [Compound 39], the “Inhibition against one or more cell lines” value [1] is reported as greater than 50%.
In the case of `COC(=O)[C@H](NS(=O)(=O)N(c1cccc(F)c1)C1CCN(Cc2ccc(F)cc2)CC1)C(C)C` [Compound 18], the “Inhibition … at 10 μM conc.” value (HL-60-TB) is reported as “Leukemia: HL-60-TB (56%)” and the “Inhibition against one or more cell lines” value [1] is reported as greater than 50%.
With `CC(C)[C@@H](NS(=O)(=O)N(c1cccc(F)c1)C1CCN(Cc2ccc(O)cc2)CC1)C(=O)O` [Compound 19] the “Inhibition … at 10 μM conc.” value (HOP-62) was 88%, the “Inhibition … at 10 μM conc.” value (NCI-H23) was 58% and the “Inhibition against one or more cell lines” value [1] was greater than 50%.
In the case of `COC(=O)[C@@H](NS(=O)(=O)N(c1ccc(F)cc1)C1CCN(C(=O)c2ccc(F)cc2)CC1)C(C)C` [Compound 36], the “Inhibition … at 10 μM conc.” value (HL-60-TB) is reported as “Leukemia: HL-60-TB (57%)” and the “Inhibition against one or more cell lines” value [1] is reported as greater than 50%.
With `O=S(=O)(c1ccc(Br)cc1)N(c1cccc(F)c1)C1CCN(Cc2ccc(F)cc2)CC1` [Compound 49] the “Inhibition … at 10 μM conc.” value (CCRF-CEM; 10 μM, Leukemia CCRF-CEM) was 51%, the “Inhibition … at 10 μM conc.” value (RPMI-8226) was 65% and the “Inhibition … at 10 μM conc.” value (MDA-MB-468; 10 μM, Breast MDA-MB-468) was 53%. The “Inhibition against one or more cell lines” value [1] was greater than 50%.
